Laboratory results from patent US9695155B2, “Herbicidal substituted pyrimidinyloxy benzene compounds” (E. I. DU PONT DE NEMOURS AND COMPANY, priority 2013, dated 2017).

Columns and labels:
pigweed [1] = experiment: Test A postemergence; type: in vivo, Amaranthus retroflexus
Summary of the method: (§1)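 Visual injury scored 0–100 (100 = complete control) against untreated controls about 10 days after treatment in a greenhouse. Test chemicals, formulated with surfactant in non-phytotoxic solvent, were sprayed on soil preemergence or on 2-10 cm, one- to two-leaf plants postemergence.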

johnsongrass = experiment: Test C preemergence; type: in vivo, Sorghum halepense
Summary of the method: (§2)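 Injury was assessed visually against controls 13 to 15 days after application, with 0 meaning no effect and 100 full control; missing entries are shown as a dash. Preemergence sprays hit seeded loam–sand soil, postemergence sprays hit 1- to 4-leaf plants.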

lambsquarters = experiment: Test C preemergence; type: in vivo, Chenopodium album
Summary of the method: as §2

ragweed = experiment: Test C preemergence; type: in vivo, Ambrosia elatior
Summary of the method: as §2

corn = experiment: Test A postemergence; type: in vivo, Zea mays
Summary of the method: as §1

giant foxtail = experiment: Test A postemergence; type: in vivo, Setaria faberii
Summary of the method: as §1

velvetleaf = experiment: Test A preemergence; type: in vivo, Abutilon theophrasti; conditions: for Plant response rating, Velvetleaf: 125 g ai/ha, 0 to 100 scale where 0 is no effect and 100 is complete control
Summary of the method: as §1

large (Lg) crabgrass [2] = experiment: Test A postemergence; type: in vivo, Digitaria sanguinalis
Summary of the method: as §1

morningglory = experiment: Test A postemergence; type: in vivo, Ipomoea spp.
Summary of the method: as §1

barnyardgrass = experiment: Test A preemergence; type: in vivo, Echinochloa crus-galli
Summary of the method: as §1

pigweed [3] = experiment: Test A preemergence; type: in vivo, Amaranthus retroflexus
Summary of the method: as §1

large (Lg) crabgrass [4] = experiment: Test C preemergence; type: in vivo, Digitaria sanguinalis
Summary of the method: as §2

[5] = 500 g ai/ha, 0 to 100 scale where 0 is no effect and 100 is complete control
[6] = 16 g ai/ha, preemergence, scale 0 to 100 (0 no effect, 100 complete control)
[7] = 62 g ai/ha, preemergence, scale 0 (no effect) to 100 (complete control)
[8] = 125 g ai/ha, preemergence, scale 0 (no effect) to 100 (complete control)
[9] = Preemergence, 31 g ai/ha, scale 0 to 100, 0 no effect, 100 complete control
[10] = 125 g ai/ha, 0 to 100 scale where 0 is no effect and 100 is complete control
[11] = 500 g ai/ha, 0 to 100 scale, 0 no effect, 100 complete control, approx. 10 days
[12] = 31 g ai/ha, 0 to 100 scale, 0 no effect, 100 complete control
[13] = 125 g ai/ha, 0 to 100 scale, 0 no effect, 100 complete control
[14] = Preemergence, 62 g ai/ha, scale 0 to 100, 0 no effect, 100 complete control
[15] = 31 g ai/ha, 0 to 100 scale where 0 is no effect and 100 is complete control, visual, approximately 10 days

Structure (SMILES): FC(F)(F)c1cnn(-c2ccccc2Oc2ncc(Br)cn2)c1 [Compound 18, 5-bromo-2-[2-[4-(trifluoromethyl)-1H-pyrazol-1-yl]phenoxy]pyrimidine]
- pest or weed control at 125 g/ha (pigweed [1]; Amaranthus retroflexus, post-emergence, 125 g ai/ha, 0 to 100 scale where 0 is no effect and 100 is complete control, read-out: Plant response rating, Pigweed): 100%
- pest or weed control at 500 g/ha (pigweed [1]; Amaranthus retroflexus, post-emergence, 240 h, 500 g ai/ha, 0 to 100 scale, 0 no effect, 100 complete control, read-out: Plant response rating Pigweed): 100%
- pest or weed control at 62 g/ha (johnsongrass; Sorghum halepense, pre-emergence, 62 g ai/ha, preemergence, scale 0 (no effect) to 100 (complete control), read-out: Johnsongrass plant response rating): 30%
- pest or weed control at 125 g/ha (johnsongrass; Sorghum halepense, pre-emergence, 125 g ai/ha, preemergence, scale 0 (no effect) to 100 (complete control), read-out: Johnsongrass plant response rating): 80%
- pest or weed control at 250 g/ha (johnsongrass; Sorghum halepense, pre-emergence, 250 g ai/ha, preemergence, scale 0 (no effect) to 100 (complete control), read-out: Johnsongrass plant response rating): 98%
- pest or weed control at 31 g/ha (johnsongrass; Sorghum halepense, pre-emergence, Preemergence, 31 g ai/ha, scale 0 to 100, 0 no effect, 100 complete control, read-out: Plant response rating, Johnsongrass): 30%
- pest or weed control at 62 g/ha (lambsquarters; Chenopodium album, pre-emergence, 62 g ai/ha, preemergence, scale 0 (no effect) to 100 (complete control), read-out: Lambsquarters plant response rating): 50%
- pest or weed control at 125 g/ha (lambsquarters; Chenopodium album, pre-emergence, 125 g ai/ha, preemergence, scale 0 (no effect) to 100 (complete control), read-out: Lambsquarters plant response rating): 65%
- pest or weed control at 250 g/ha (lambsquarters; Chenopodium album, pre-emergence, 250 g ai/ha, preemergence, scale 0 (no effect) to 100 (complete control), read-out: Lambsquarters plant response rating): 80%
- pest or weed control at 31 g/ha (lambsquarters; Chenopodium album, pre-emergence, Preemergence, 31 g ai/ha, scale 0 to 100, 0 no effect, 100 complete control, read-out: Plant response rating, Lambsquarters): 30%
- pest or weed control at 62 g/ha (ragweed; Ambrosia artemisiifolia, pre-emergence, 62 g ai/ha, preemergence, scale 0 (no effect) to 100 (complete control), read-out: Ragweed plant response rating): 0%
- pest or weed control at 125 g/ha (ragweed; Ambrosia artemisiifolia, pre-emergence, 125 g ai/ha, preemergence, scale 0 (no effect) to 100 (complete control), read-out: Ragweed plant response rating): 10%
- pest or weed control at 250 g/ha (ragweed; Ambrosia artemisiifolia, pre-emergence, 250 g ai/ha, preemergence, scale 0 (no effect) to 100 (complete control), read-out: Ragweed plant response rating): 30%
- pest or weed control at 31 g/ha (ragweed; Ambrosia artemisiifolia, pre-emergence, Preemergence, 31 g ai/ha, scale 0 to 100, 0 no effect, 100 complete control, read-out: Plant response rating, Ragweed): 0%
- Corn plant response rating (crop injury, 0 = no effect, 100 = complete kill) at 125 g/ha (corn; Zea mays, post-emergence, 240 h, 125 g ai/ha, 0 to 100 scale where 0 is no effect and 100 is complete control): 30%
- plant injury at 500 g/ha (corn; Zea mays, post-emergence, 240 h, 500 g ai/ha, 0 to 100 scale, 0 no effect, 100 complete control, read-out: Plant response rating Corn): 90%
- pest or weed control at 125 g/ha (giant foxtail; Setaria faberi, post-emergence, 240 h, 125 g ai/ha, 0 to 100 scale where 0 is no effect and 100 is complete control, read-out: Plant response rating, Foxtail, Giant): 80%
- pest or weed control at 500 g/ha (giant foxtail; Setaria faberi, post-emergence, 240 h, 500 g ai/ha, 0 to 100 scale, 0 no effect, 100 complete control, read-out: Plant response rating Foxtail, Giant): 100%
- Plant response rating, Velvetleaf (velvetleaf): 90
- pest or weed control at 500 g/ha (velvetleaf; Abutilon theophrasti, pre-emergence, 240 h, 500 g ai/ha, 0 to 100 scale, 0 no effect, 100 complete control, approx. 10 days, read-out: Velvetleaf plant response rating): 90%
- pest or weed control at 125 g/ha (large (Lg) crabgrass [2]; Digitaria sanguinalis, post-emergence, 240 h, 125 g ai/ha, 0 to 100 scale where 0 is no effect and 100 is complete control, read-out: Plant response rating, Crabgrass, Large): 70%
- pest or weed control at 500 g/ha (large (Lg) crabgrass [2]; Digitaria sanguinalis, post-emergence, 240 h, 500 g ai/ha, 0 to 100 scale, 0 no effect, 100 complete control, read-out: Plant response rating Crabgrass, Large): 100%
- pest or weed control at 125 g/ha (morningglory; Ipomoea, post-emergence, 240 h, 125 g ai/ha, 0 to 100 scale where 0 is no effect and 100 is complete control, read-out: Plant response rating, Morningglory): 60%
- pest or weed control at 500 g/ha (morningglory; Ipomoea, post-emergence, 240 h, 500 g ai/ha, 0 to 100 scale, 0 no effect, 100 complete control, read-out: Plant response rating Morningglory): 100%
- pest or weed control at 125 g/ha (barnyardgrass; Echinochloa crus-galli, pre-emergence, 240 h, 125 g ai/ha, 0 to 100 scale where 0 is no effect and 100 is complete control, read-out: Plant response rating, Barnyardgrass): 90%
- pest or weed control at 500 g/ha (barnyardgrass; Echinochloa crus-galli, pre-emergence, 240 h, 500 g ai/ha, 0 to 100 scale, 0 no effect, 100 complete control, approx. 10 days, read-out: Barnyardgrass plant response rating): 100%
- pest or weed control at 125 g/ha (pigweed [3]; Amaranthus retroflexus, pre-emergence, 125 g ai/ha, 0 to 100 scale where 0 is no effect and 100 is complete control, read-out: Plant response rating, Pigweed): 100%
- pest or weed control at 500 g/ha (pigweed [3]; Amaranthus retroflexus, pre-emergence, 240 h, 500 g ai/ha, 0 to 100 scale, 0 no effect, 100 complete control, approx. 10 days, read-out: Pigweed plant response rating): 100%
- pest or weed control at 62 g/ha (large (Lg) crabgrass [4]; Digitaria sanguinalis, pre-emergence, 62 g ai/ha, preemergence, scale 0 (no effect) to 100 (complete control), read-out: Crabgrass, Large plant response rating): 100%
- pest or weed control at 125 g/ha (large (Lg) crabgrass [4]; Digitaria sanguinalis, pre-emergence, 125 g ai/ha, preemergence, scale 0 (no effect) to 100 (complete control), read-out: Crabgrass, Large plant response rating): 100%
- pest or weed control at 250 g/ha (large (Lg) crabgrass [4]; Digitaria sanguinalis, pre-emergence, 250 g ai/ha, preemergence, scale 0 (no effect) to 100 (complete control), read-out: Crabgrass, Large plant response rating): 100%
- pest or weed control at 31 g/ha (large (Lg) crabgrass [4]; Digitaria sanguinalis, pre-emergence, Preemergence, 31 g ai/ha, scale 0 to 100, 0 no effect, 100 complete control, read-out: Plant response rating, Crabgrass, Large): 75%

Structure (SMILES): Fc1cnc(Oc2cccc(C(F)F)c2-n2cc(Br)cn2)nc1 [Compound 112]
- Plant response rating, Pigweed (pigweed [1]; [5]): 100
- Johnsongrass plant response rating (johnsongrass; [6]): 0
- Johnsongrass plant response rating (johnsongrass; [7]): 20
- Johnsongrass plant response rating (johnsongrass; [8]): 40
- Plant response rating, Johnsongrass (johnsongrass; [9]): 5
- Lambsquarters plant response rating (lambsquarters; [6]): 98
- Lambsquarters plant response rating (lambsquarters; [7]): 100
- Lambsquarters plant response rating (lambsquarters; [8]): 98
- Plant response rating, Lambsquarters (lambsquarters; [9]): 100
- Ragweed plant response rating (ragweed; [6]): 0
- Ragweed plant response rating (ragweed; [7]): 35
- Ragweed plant response rating (ragweed; [8]): 100
- Plant response rating, Ragweed (ragweed; [9]): 0
- Plant response rating, Corn (corn; [10]): 30
- Plant response rating, Corn (corn; [5]): 70
- Plant response rating, Foxtail, Giant (giant foxtail; [10]): 30
- Plant response rating, Foxtail, Giant (giant foxtail; [5]): 90
- Plant response rating, Velvetleaf (velvetleaf): 90
- Plant response rating, Crabgrass, Large (large (Lg) crabgrass [2]; [10]): 60
- Plant response rating, Crabgrass, Large (large (Lg) crabgrass [2]; [5]): 100
- Plant response rating, Morningglory (morningglory; [5]): 100
- Plant response rating, Barnyardgrass (barnyardgrass; [10]): 70
- Barnyardgrass plant response rating (barnyardgrass; [11]): 100
- Plant response rating, Pigweed (pigweed [3]; [10]): 100
- Pigweed plant response rating (pigweed [3]; [11]): 100
- Crabgrass, Large plant response rating (large (Lg) crabgrass [4]; [6]): 35
- Crabgrass, Large plant response rating (large (Lg) crabgrass [4]; [7]): 100
- Crabgrass, Large plant response rating (large (Lg) crabgrass [4]; [8]): 100
- Plant response rating, Crabgrass, Large (large (Lg) crabgrass [4]; [9]): 100

Structure (SMILES): Fc1cccc(Oc2ncc(Cl)cn2)c1-n1cc(OCC(F)(F)F)cn1 [Compound 270]
- Plant response rating, Pigweed (pigweed [1]; [12]): 60
- Plant response rating, Pigweed (pigweed [1]; [13]): 100
- Johnsongrass plant response rating (johnsongrass; [6]): 0
- Johnsongrass plant response rating (johnsongrass; [8]): 95
- Plant response rating, Johnsongrass (johnsongrass; [14]): 40
- Lambsquarters plant response rating (lambsquarters; [6]): 80
- Lambsquarters plant response rating (lambsquarters; [8]): 100
- Plant response rating, Lambsquarters (lambsquarters; [14]): 100
- Ragweed plant response rating (ragweed; [6]): 0
- Ragweed plant response rating (ragweed; [8]): 70
- Plant response rating, Ragweed (ragweed; [14]): 45
- Plant response rating, Corn (corn; [12]): 20
- Plant response rating, Corn (corn; [13]): 50
- Plant response rating, Foxtail, Giant (giant foxtail; [12]): 10
- Plant response rating, Foxtail, Giant (giant foxtail; [13]): 90
- Plant response rating, Barnyardgrass (barnyardgrass; [15]): 20
- Barnyardgrass plant response rating (0 to 100 scale, 0 is no effect, 100 is complete control) (barnyardgrass; 125 g ai/ha): 100
- Plant response rating, Pigweed (pigweed [3]; [15]): 100
- Pigweed plant response rating (0 to 100 scale) (pigweed [3]; 125 g ai/ha): 100
- Crabgrass, Large plant response rating (large (Lg) crabgrass [4]; [6]): 50
- Crabgrass, Large plant response rating (large (Lg) crabgrass [4]; [8]): 100
- Plant response rating, Crabgrass, Large (large (Lg) crabgrass [4]; [14]): 100
